Assay results from patent US20100204182A1, “ECTONUCLEOTIDASE INHIBITORS” (RHEINISCHE FRIEDRICH-WILHELMS-UNIVERSITAT BONN, priority 2006, published 2010).

Tests used:
human NTPDase3 = biological target: T1, human NTPDase3 (Homo sapiens, UniProt O75355); experiment: NTPDase inhibition assay by capillary electrophoresis (CE), NTPDase3; type: biochemical; details: ATP 320 μM; for inhibition at 1000 µM: 1 mM compound; for Ki: CE method, Km 75 μM, read-out: NTPDase3 Ki [μM] ± SEM
T1 sequence (O75355 1-529): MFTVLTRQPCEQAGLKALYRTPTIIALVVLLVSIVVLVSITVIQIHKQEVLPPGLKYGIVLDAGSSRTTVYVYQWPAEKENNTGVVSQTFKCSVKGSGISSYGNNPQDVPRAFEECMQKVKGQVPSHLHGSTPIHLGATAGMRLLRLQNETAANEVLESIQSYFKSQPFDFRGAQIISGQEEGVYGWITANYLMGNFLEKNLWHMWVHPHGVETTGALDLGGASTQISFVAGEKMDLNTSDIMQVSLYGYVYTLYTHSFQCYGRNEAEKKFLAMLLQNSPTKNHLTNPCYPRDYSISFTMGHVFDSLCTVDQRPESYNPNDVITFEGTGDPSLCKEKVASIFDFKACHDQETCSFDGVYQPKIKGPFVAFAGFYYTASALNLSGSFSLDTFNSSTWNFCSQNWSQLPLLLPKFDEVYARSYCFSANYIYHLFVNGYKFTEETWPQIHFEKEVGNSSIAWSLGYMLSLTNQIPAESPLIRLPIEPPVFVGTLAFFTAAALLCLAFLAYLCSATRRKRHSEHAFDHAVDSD
Experimental: The applied enzyme inhibition assay has been described (Iqbal J, Vollmayer P, Braun N, Zimmermann H, Müller C E. A capillary electrophoresis method for the characterization of ecto-nucleoside triphosphate diphosphohydrolases (NTPDases) and the analysis of inhibitors by in-capillary enzymatic microreaction. Purinergic Signalling 2005, 1, 349-358).
A. CE instrumentation: All experiments were carried out using a P/ACE MDQ capillary electrophoresis system (Beckman Instruments, Fullerton, Calif., USA) equipped with a UV detection system coupled with a diode-array detector (DAD). Data collection and peak area analysis were performed by the P/ACE MDQ software 32 KARAT obtained from Beckman Coulter. The capillary temperature was kept constant at 25° C. The temperature of the sample storing unit was also adjusted to 25° C. The electrophoretic separations were carried out using an eCAP polyacrylamide-coated fused-silica capillary [(30 cm (20 cm effective length)×50 μm internal diameter (I.D.)×360 μm outside diameter (O.D.), obtained from CS-Chromatographie (Langerwehe, Germany)]. The separation was performed using an applied current of −60 μA and a data acquisition rate of 8 Hz. Analytes were detected using direct UV absorbance at 210 nm. The capillary was conditioned by rinsing with water for 2 min and subsequently with buffer (phosphate 50 mM, pH 6.5) for 1 min. Sample injections were made at the cathodic side of the capillary.
B. NTPDase inhibition assay by capillary electrophoresis: Enzyme inhibition assays were carried out at 37° C. in a final volume of 100 μl. The reaction mixture contained 320 μM of ATP (substrate) in reaction buffer. The reaction buffer contained 140 mM NaCl, 5 mM KCl, 1 mM MgCl2, 2 mM CaCl2, and 10 mM Hepes, pH 7.4.
Different concentrations of inhibitors dissolved in DMSO or water (10 μl) were added and the reaction was initiated by the addition of 10 μl of the appropriately diluted recombinant or native human or rat NTPDase enzyme. […] The mixture (final volume 100 μl) was incubated for 15 min and terminated by heating at 99° C. for 4 min. Aliquots of the reaction mixture (50 μl) were then transferred to mini-CE vials and injected into the CE instrument under the conditions described above. 20 μM of UMP was used as internal standard. Inhibition of NTPDase was tested over a range of 6 to 8 concentrations of test compound spanning 3 orders of magnitude to determine K1 values. Each analysis was repeated two times (in triplicates) in two separate experiments. The Cheng-Prusoff equation was used to calculate the K1 values from the IC50 values, determined by the non-linear curve fitting program PRISM® 3.0 (GraphPad, San Diego, Calif., USA). In table 1K, values of selected compounds as inhibitors of human NTPDases are given.

hP2Y4 = hP2Y4 (Homo sapiens, UniProt P51582); experiment: Inhibition of UTP binding at hP2Y4; details: read-out: hP2Y4 % inhibition of UTP binding at 100 μM, n = 3, mean ± SEM
hP2Y4, sequence (P51582 whole entry): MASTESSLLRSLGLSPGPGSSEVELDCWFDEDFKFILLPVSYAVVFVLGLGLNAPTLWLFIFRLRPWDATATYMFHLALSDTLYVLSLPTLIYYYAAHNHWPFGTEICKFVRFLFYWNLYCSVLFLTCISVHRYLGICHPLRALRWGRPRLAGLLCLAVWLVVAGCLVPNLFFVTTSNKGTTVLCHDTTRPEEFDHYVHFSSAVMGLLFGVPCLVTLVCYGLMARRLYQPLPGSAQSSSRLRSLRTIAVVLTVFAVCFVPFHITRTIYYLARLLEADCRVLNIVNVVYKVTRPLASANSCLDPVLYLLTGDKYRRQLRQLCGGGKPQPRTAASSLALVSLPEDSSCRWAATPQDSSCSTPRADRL
Experimental: In table 2 inhibition data of selected examples at human P2Y receptor subtypes were collected. It can be seen that no compound was identified that inhibited P2Y receptors at high concentrations of 100 μM and 10 μM, respectively.

rP2Y6 = rP2Y6 (Rattus norvegicus, UniProt Q63371); experiment: Inhibition of UDP binding at rP2Y6; details: read-out: rP2Y6 % inhibition of UDP binding at 100 μM, n = 3, mean ± SEM
rP2Y6, sequence (Q63371 whole entry): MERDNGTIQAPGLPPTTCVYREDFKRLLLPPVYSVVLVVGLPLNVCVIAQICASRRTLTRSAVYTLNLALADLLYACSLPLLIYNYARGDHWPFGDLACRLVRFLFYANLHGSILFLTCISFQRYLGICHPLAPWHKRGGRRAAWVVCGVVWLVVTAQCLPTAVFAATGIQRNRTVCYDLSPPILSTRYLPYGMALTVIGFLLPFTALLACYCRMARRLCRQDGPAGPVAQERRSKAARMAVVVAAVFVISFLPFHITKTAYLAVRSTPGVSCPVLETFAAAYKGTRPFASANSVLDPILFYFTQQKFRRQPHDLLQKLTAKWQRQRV

| Structure (SMILES) | inhibition at 1000 µM (human NTPDase3) | Ki (human NTPDase3) | inhibition at 100 µM (hP2Y4) | inhibition at 100 µM (rP2Y6) |
| --- | --- | --- | --- | --- |
| CCOP(=O)(Cc1ccc(NC(=O)CCNC(=O)[C@H]2O[C@@H](n3ccc(=O)[nH]c3=O)C(O)C2O)cc1)OCC (stereo in doubt) [Compound 3, 4-[3-((2S,3R,4S,5R)-5-(2,4-Dioxo-3,4-dihydropyrimidin-1(2H)-yl)-3,4-di-hydroxy-tetrahydrofurane-2-carboxamido)propaneamido]benzylphosphonic acid diethylester] | 40% | > 200 µM | 14 ± 6% | 7 ± 7% |
| CCOP(=O)(Cc1ccc(NC(=O)CNC(=O)[C@H]2O[C@@H](n3ccc(=O)[nH]c3=O)C(O)C2O)cc1)OCC (stereo in doubt) [Compound 2, 4-[2-((2S,3R,4S,5R)-5-(2,4-Dioxo-3,4-dihydropyrimidin-1(2H)-yl)-3,4-dihydroxy-tetrahydrofurane-2-carboxamido)ethaneamido]benzylphosphonic acid diethylester] | 0% | > 200 µM | – | -10 ± 10% |
